Reference: patent US4277474A, “Treatment of allergic symptoms with propanone derivatives” (Nippon Zoki Pharmaceutical Co., Ltd., priority 1978, dated 1981)
Structures can show the parent of a compound that is named as a salt. Where two headings read alike, the source gives them in different places.

How the values were obtained:
Peritoneal cavity cells = experiment: Inhibitory effect on histamine release from sensitized peritoneal cavity cells; format: cell-based, rat (Wistar-strain); details: for inhibition at 50 µM / inhibition at 100 µM: read-out: Inhibitory effect on histamine release; for inhibition at 200 µM: 0.2 mM
Method: The inhibitory effect on histamine release of the compounds according to the present invention was investigated as follows. […] These cells were suspended in a phosphoric acid buffer solution (containing 0.1% of gelatin) and each 0.5 ml portion of this suspension was taken in a polyethylene tube. 1 ml each of solutions of various concentrations of test compound and 0.5 ml of 200 μg/ml of ovalbumin solution were added therein. They were incubated for 20 minutes at 37° C. to measure the histamine release rate. The amount of histamine was measured by a modified Shore method using fluorescence.

SRS-A = experiment: Anti-SRS-A effect on guinea pig's ileum (Magnus method)
Method: The anti-SRS-A effect of the compounds according to the present invention on guinea pig's ileum was measured by Magnus method. […] One minute thereafter, the ileum contraction inhibiting rate (%) was measured with use of 1 ml of 80% ethanol solution of SRS-A (150 mg/ml).

[1] = Rattus norvegicus, 0.05 mM, average ± S.E. of 3 or 4 experiments

## O=C(O)c1cc(=O)c2c(OCC(O)COc3cccc4oc(C(=O)O)cc(=O)c34)cccc2o1 [DSCG, disodium chromoglicate, reference compound]
Peritoneal cavity cells; 0.01 mM
  Histamine release rate: 36.8%
Peritoneal cavity cells; 0.01 mM, release not caused by antigen-antibody reaction deducted
  Net release rate: 22.9%
Peritoneal cavity cells; Rattus norvegicus, 0.01 mM
  inhibition at 10 µM: 30%
Peritoneal cavity cells; [1]
  inhibition at 50 µM: 29 ± 6.1%
Peritoneal cavity cells; Rattus norvegicus, 0.1 mM
  inhibition at 100 µM: 70%

## Cc1ccc(C(=O)C(C)CN2CCN(CC(C)C)CC2)cc1.Cl.Cl (stereo not shown) [Example 1, 2,4'-dimethyl-3-(4-isobutylpiperazino)propiophenone dihydrochloride]
SRS-A; 10^-4 g/ml
  ileum contraction inhibiting rate: 64.7 ± 7.51%
SRS-A; 10^-5 g/ml
  ileum contraction inhibiting rate: 6.7 ± 3.33%
SRS-A; 10^-6 g/ml
  ileum contraction inhibiting rate: 0 ± 0%

## CC(CN(C)C)C(=O)c1ccc2ccccc2c1 (stereo not drawn) [Example 3, 2-methyl-3-dimethylamino-β-propionaphthone hydrochloride]
SRS-A; 10^-4 g/ml
  ileum contraction inhibiting rate: 91.3 ± 3.84%
SRS-A; 10^-5 g/ml
  ileum contraction inhibiting rate: 47.0 ± 9.50%
SRS-A; 10^-6 g/ml
  ileum contraction inhibiting rate: 1.3 ± 0.88%

## COc1ccc(C(=O)C(C)CN2CCCCC2)cc1OC.Cl (stereo not shown) [Example 7, 3',4'-dimethoxy-2-methyl-3-piperidinopropiophenone hydrochloride]
SRS-A; 10^-4 g/ml
  ileum contraction inhibiting rate: 85.7 ± 0.67%
SRS-A; 10^-5 g/ml
  ileum contraction inhibiting rate: 8.3 ± 2.85%
SRS-A; 10^-6 g/ml
  ileum contraction inhibiting rate: 1.0 ± 1.00%

## CC(CN1CCCCC1)C(=O)c1ccc2c(c1)CCCC2 (stereo not shown) [Example 9, 2-methyl-3-piperidino-5',6',7',8'-tetrahydro-2'-propionaphthone hydrochloride]
Peritoneal cavity cells; Rattus norvegicus, 0.1 mM
  inhibition at 100 µM: 33.7%

## CC1CCCN(CC(C)C(=O)c2ccc3ccccc3c2)C1 (stereo not drawn) [Example 10, 2-methyl-3-(3-methylpiperidino)-β-propionaphthone hydrochloride]
Peritoneal cavity cells; [1]
  inhibition at 50 µM: 18 ± 5.4%
Peritoneal cavity cells; Rattus norvegicus, 0.1 mM
  inhibition at 100 µM: 49.9%

## CCN(CC)CC(C)C(=O)c1ccc(C)cc1.Cl (stereo not shown) [Example 11, 2,4'-dimethyl-3-diethylaminopropiophenone hydrochloride]
SRS-A; 10^-4 g/ml
  ileum contraction inhibiting rate: 68.0 ± 13.05%
SRS-A; 10^-5 g/ml
  ileum contraction inhibiting rate: 0.3 ± 0.33%
SRS-A; 10^-6 g/ml
  ileum contraction inhibiting rate: 3.0 ± 3.00%

## Cc1ccc(C(=O)C(C)CN2CCOCC2)cc1.Cl (stereo not shown) [Example 12, 2,4'-dimethyl-3-morpholinopropiophenone hydrochloride]
SRS-A; 10^-4 g/ml
  ileum contraction inhibiting rate: 69.7 ± 12.13%
SRS-A; 10^-5 g/ml
  ileum contraction inhibiting rate: 20.7 ± 5.61%
SRS-A; 10^-6 g/ml
  ileum contraction inhibiting rate: 8.3 ± 6.89%

## Cc1ccc(C(=O)C(C)CN2CCCC2)cc1.Cl (stereo not shown) [Example 13, 2,4'-dimethyl-3-pyrrolidinopropiophenone hydrochloride]
SRS-A; 10^-4 g/ml
  ileum contraction inhibiting rate: 80.7 ± 6.98%
SRS-A; 10^-5 g/ml
  ileum contraction inhibiting rate: 2.7 ± 2.67%
SRS-A; 10^-6 g/ml
  ileum contraction inhibiting rate: 1.3 ± 1.33%

## Cc1ccc(C(=O)C(C)CN2CCN(C)CC2)cc1.Cl.Cl (stereo not shown) [Example 14, 2,4'-dimethyl-3-(4-methylpiperazino)propiophenone dihydrochloride]
SRS-A; 10^-4 g/ml
  ileum contraction inhibiting rate: 58.0 ± 4.36%
SRS-A; 10^-5 g/ml
  ileum contraction inhibiting rate: 10.3 ± 7.88%
SRS-A; 10^-6 g/ml
  ileum contraction inhibiting rate: 10.3 ± 7.98%

## CCN1CCN(CC(C)C(=O)c2ccc(C)cc2)CC1.Cl.Cl (stereo not shown) [Example 15, 2,4'-dimethyl-3-(4-ethylpiperazino)propiophenone dihydrochloride]
SRS-A; 10^-4 g/ml
  ileum contraction inhibiting rate: 69.7 ± 3.71%
SRS-A; 10^-5 g/ml
  ileum contraction inhibiting rate: 20.7 ± 6.12%
SRS-A; 10^-6 g/ml
  ileum contraction inhibiting rate: 0.3 ± 0.33%

## Cc1ccc(C(=O)C(C)CN2CCN(Cc3ccccc3)CC2)cc1 (stereo not shown) [Example 16, 2,4'-dimethyl-3-(4-benzylpiperazino)propiophenone dihydrochloride]
Peritoneal cavity cells; Rattus norvegicus
  inhibition at 200 µM: 72.4%

## COc1cc(C(=O)C(C)CN2CCCCC2)ccc1O (stereo not shown) [Example 18, 4'-hydroxy-3'-methoxy-2-methyl-3-piperidinopropiophenone hydrochloride]
Peritoneal cavity cells; Rattus norvegicus
  inhibition at 200 µM: 83.7%

## CC(CN1CCCCC1)C(=O)c1cccc2ccccc12 (stereo not drawn) [Example 19, 2-methyl-3-piperidino-α-propionaphthone hydrochloride]
Peritoneal cavity cells; Rattus norvegicus
  inhibition at 200 µM: 100%

## CCCCCCc1ccc(C(=O)C(C)CN2CCCCC2)cc1 (stereo not shown) [Example 22, 4'-hexyl-2-methyl-3-piperidinopropiophenone hydrochloride]
Peritoneal cavity cells; [1]
  inhibition at 50 µM: 82 ± 1.7%
Peritoneal cavity cells; Rattus norvegicus, 0.1 mM
  inhibition at 100 µM: 87.2%

## CC1CCN(CC(C)C(=O)c2ccc3ccccc3c2)CC1 (stereo not drawn) [Example 23, 2-methyl-3-(4-methylpiperidino)-β-propionaphthone hydrochloride]
Peritoneal cavity cells; [1]
  inhibition at 50 µM: 21.4 ± 2.4%
Peritoneal cavity cells; Rattus norvegicus, 0.1 mM
  inhibition at 100 µM: 65.8%

## Cc1ccc(C(=O)C(C)CN(C)C)cc1.Cl (stereo not shown) [Example 24, 2,4'-dimethyl-3-dimethylaminopropiophenone hydrochloride]
SRS-A; 10^-4 g/ml
  ileum contraction inhibiting rate: 57.3 ± 5.17%
SRS-A; 10^-5 g/ml
  ileum contraction inhibiting rate: 7.7 ± 3.67%
SRS-A; 10^-6 g/ml
  ileum contraction inhibiting rate: 4.3 ± 2.40%

## Cc1ccc(C(=O)C(CN2CCCCC2)c2ccccc2)cc1 (stereo not shown) [Example 27, 4'-methyl-2-phenyl-3-piperidinopropiophenone hydrochloride]
Peritoneal cavity cells; Rattus norvegicus
  inhibition at 200 µM: 78.5%

## CC(CN1CCCCC1C)C(=O)c1ccc2ccccc2c1 (stereo not drawn) [Example 28, 2-methyl-3-(2-methylpiperidino)-β-propionaphthone hydrochloride]
Peritoneal cavity cells; [1]
  inhibition at 50 µM: 18.5 ± 6.5%
Peritoneal cavity cells; Rattus norvegicus, 0.1 mM
  inhibition at 100 µM: 40.7%

## CC(CN1CCC(Cc2ccccc2)CC1)C(=O)c1ccc2ccccc2c1 (stereo not drawn) [Example 29, 2-methyl-3-(4-benzylpiperidino)-β-propionaphthone hydrochloride]
Peritoneal cavity cells; [1]
  inhibition at 50 µM: 61 ± 3.6%
Peritoneal cavity cells; Rattus norvegicus, 0.1 mM
  inhibition at 100 µM: 98.7%

## Cc1ccc(C(=O)CCN2CCCCC2)cc1C [Example 30, 3',4'-dimethyl-3-piperidinopropiophenone hydrochloride]
Peritoneal cavity cells; [1]
  inhibition at 50 µM: 19.4 ± 7.8%
Peritoneal cavity cells; Rattus norvegicus, 0.1 mM
  inhibition at 100 µM: 50.3%

## O=C(CCN1CCCCC1)c1ccc2ccccc2c1 [Example 31, 3-piperidino-β-propionaphthone hydrochloride]
Peritoneal cavity cells; Rattus norvegicus
  inhibition at 50 µM: 53.4 ± 9.1%
  inhibition at 100 µM: 89.6%

## CCC(CN1CCCCC1)C(=O)c1ccc2ccccc2c1 (stereo not drawn) [Example 32, 2-ethyl-3-piperidino-β-propionaphthone hydrochloride]
Peritoneal cavity cells; [1]
  inhibition at 50 µM: 27.2 ± 8.1%
Peritoneal cavity cells; Rattus norvegicus, 0.1 mM
  inhibition at 100 µM: 42%

## CC(CN1CCCCC1)C(=O)c1ccc2c(c1)CCC2 (stereo not shown) [Example 33, 1-(5-indanyl)-2-methyl-3-piperidinopropanone hydrochloride]
Peritoneal cavity cells; [1]
  inhibition at 50 µM: 14.4 ± 2.6%

## CCc1ccc(C(=O)C(C)CN2CCCCC2)cc1CC (stereo not shown) [Example 34, 3',4'-diethyl-2-methyl-3-piperidinopropiophenone hydrochloride]
Peritoneal cavity cells; [1]
  inhibition at 50 µM: 29.1 ± 7.5%

## CCCc1ccc(C(=O)C(C)CN2CCCCC2)cc1 (stereo not shown) [Example 36, 4'-n-propyl-2-methyl-3-piperidinopropiophenone hydrochloride]
Peritoneal cavity cells; [1]
  inhibition at 50 µM: 23.6 ± 7.7%

## COc1ccc2cc(C(=O)CCN3CCCCC3)ccc2c1 [Example 39, 6'-methoxy-3-piperidino-2'-propionaphthone hydrochloride]
Peritoneal cavity cells; Rattus norvegicus, 0.1 mM
  inhibition at 100 µM: 85%

## COc1ccc2cc(C(=O)C(C)CN3CCCCC3)ccc2c1 (stereo not shown) [Example 40, 6'-methoxy-2-methyl-3-piperidino-2'-propionaphthone hydrochloride]
Peritoneal cavity cells; Rattus norvegicus, 0.1 mM
  inhibition at 100 µM: 84%

## COc1ccc(C(=O)C(C)CN2CCCCC2)cc1Cl (stereo not shown) [Example 49, 3'-chloro-4'-methoxy-2-methyl-3-piperidinopropiophenone hydrochloride]
Peritoneal cavity cells; Rattus norvegicus, 0.1 mM
  inhibition at 100 µM: 38%

## CC(CN1CCCCC1)C(=O)c1ccc(Cl)c(Cl)c1 (stereo not shown) [Example 50, 3',4'-dichloro-2-methyl-3-piperidinopropiophenone hydrochloride]
Peritoneal cavity cells; Rattus norvegicus, 0.1 mM
  inhibition at 100 µM: 73%

## Cc1ccc2cc(C(=O)C(C)CN3CCCCC3)ccc2c1 (stereo not shown) [Example 51, 2,6'-dimethyl-3-piperidino-2'-propionaphthone hydrochloride]
Peritoneal cavity cells; Rattus norvegicus, 0.1 mM
  inhibition at 100 µM: 37%
